Results published in PubChem BioAssay (NCI).
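Dose response: 5 concentrations. Exposure: 48 h. Format: 96-well plates. Endpoint: linear interpolation; highest concentration if not reached. At the TGI there is no net growth.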

Legend:
Assay in all cases: NCI-60 cell line screen, 48 h
OVCAR-4 ovarian = test system: OVCAR-4 ovarian
SW-620 colon = test system: SW-620 colon
SK-MEL-2 melanoma = test system: SK-MEL-2 melanoma
SR leukemia = test system: SR leukemia
NCI/ADR-RES ovarian = test system: NCI/ADR-RES ovarian
MALME-3M melanoma = test system: MALME-3M melanoma
RPMI-8226 leukemia = test system: RPMI-8226 leukemia
UACC-62 melanoma = test system: UACC-62 melanoma
EKVX NSCLC = test system: EKVX NSCLC
SK-MEL-28 melanoma = test system: SK-MEL-28 melanoma
SK-MEL-5 melanoma = test system: SK-MEL-5 melanoma
PC-3 prostate = test system: PC-3 prostate
COLO 205 colon = test system: COLO 205 colon
MCF7 breast = test system: MCF7 breast
A498 renal = test system: A498 renal
T-47D breast = test system: T-47D breast
LOX IMVI melanoma = test system: LOX IMVI melanoma
SF-295 CNS = test system: SF-295 CNS
HCT-15 colon = test system: HCT-15 colon
SF-268 CNS = test system: SF-268 CNS
KM12 colon = test system: KM12 colon
HCT-116 colon = test system: HCT-116 colon
U251 CNS = test system: U251 CNS
HL-60(TB) leukemia = test system: HL-60(TB) leukemia
BT-549 breast = test system: BT-549 breast
OVCAR-3 ovarian = test system: OVCAR-3 ovarian
K-562 leukemia = test system: K-562 leukemia
UO-31 renal = test system: UO-31 renal
SN12C renal = test system: SN12C renal
CCRF-CEM leukemia = test system: CCRF-CEM leukemia
786-0 renal = test system: 786-0 renal
MDA-MB-435 = test system: MDA-MB-435
IGROV1 ovarian = test system: IGROV1 ovarian
NCI-H226 lung = test system: NCI-H226 lung
HT29 colon = test system: HT29 colon
SK-OV-3 ovarian = test system: SK-OV-3 ovarian
MDA-MB-231 breast = test system: MDA-MB-231 breast
A549 NSCLC = test system: A549 NSCLC
SNB-19 CNS = test system: SNB-19 CNS
M14 melanoma = test system: M14 melanoma
OVCAR-8 ovarian = test system: OVCAR-8 ovarian
DU-145 prostate = test system: DU-145 prostate
NCI-H460 lung = test system: NCI-H460 lung
HOP-62 NSCLC = test system: HOP-62 NSCLC
MOLT-4 leukemia = test system: MOLT-4 leukemia
NCI-H522 lung = test system: NCI-H522 lung
RXF 393 renal = test system: RXF 393 renal
SNB-75 CNS = test system: SNB-75 CNS
HCC-2998 colon = test system: HCC-2998 colon
OVCAR-5 ovarian = test system: OVCAR-5 ovarian
HS 578T breast = test system: HS 578T breast
ACHN renal = test system: ACHN renal
CAKI-1 renal = test system: CAKI-1 renal
MDA-N = test system: MDA-N
NCI-H23 lung = test system: NCI-H23 lung

Measured: TGI

CCOC(=O)c1ccc(C(=O)/C(C#N)=C2\CCCN2)n1C
> 100 µM: all assays above
